In paper PMC10622577, “Structural basis for stabilisation of the RAD51 nucleoprotein filament by BRCA2” (Nature Communications, 2023):

Tested on: RAD51 D184A, D187A NPFs
Test: SPR of TR2 binding to RAD51 D184A, D187A NPFs
Design: species or system human
Procedure: We investigated further the effect of the acidic patch mutations on TR2 binding using surface plasmon resonance (SPR). We developed an SPR assay whereby increasing amounts of TR2 peptide were added to RAD51 NPFs that had been assembled on biotinylated DNA coupled to a streptavidin chip (Supplementary Fig. 3A, Supplementary Table 1). […] We used the same SPR assay to assess the effect of the mutations on the ability of BRC4 to disrupt an established filament (Supplementary Fig. 4A, Supplementary Table 1).
All SPR experiments were performed using a Biacore T200 instrument and an S-series SA (Streptavidin) sensor chip. A single chip was used to immobilise biotinylated single- and double-stranded DNA in buffer: 25 mM HEPES pH 7.4, 100 mM NaCl, 1 mM EDTA. ssDNA and dsDNA were immobilised in different channels to a signal of 120 RU and 250 RU, respectively.
All binding experiments were performed in CMA buffer: 25 mM HEPES pH 7.4, 100 mM NaCl, 2 mM DTT, 2 mM ATP, 5 mM CaCl2, 5 mM MgCl2. 1 μM RAD51 (wild-type, D184A or D184A, D187A mutant proteins) was injected for 120 seconds followed by buffer for 120 seconds at a flow rate of 10 μl/min. TR2 or BRC4 peptides were then injected in a concentration titration series of 0.1, 0.25, 0.5, 0.75, 1, 2, 3, 5, 7.5, 10 and 15 μM for 120 seconds at a flow rate of […] followed by a dissociation time of 240 seconds. After each injection of BRCA2 peptide, the sensor chip was regenerated with buffer comprising of CMA buffer with 1 M NaCl for 120 seconds at a flow rate of 100 μl/min. All experiments were performed in triplicate.
For the BRCA2 TR2 titration series, blank-subtracted sensorgrams were used to extract the maximum response accumulated after each TR2 injection. TR2 response accumulation was corrected to account for differences in RAD51 filament formation between runs, by multiplying the maximum response by a scale factor calculated as the ratio between mean RAD51 filament accumulation on each DNA substrate and the mean RAD51 accumulated for each mutant for each triplicate. The first experiment of the triplicate series for binding of TR2 to the D184A, D187A RAD51 NPF on dsDNA was discounted due to a failed peptide injection.
All graph plotting and statistical analysis was performed using Prism 9.3.1 (GraphPad). […] Data for each mutant on each substrate were fitted with a non-linear one-phase exponential decay.
Supplementary table 1. DNA oligos and peptides
Oligos Size (nt) Sequence (5’ – 3’)
D184A […] (forward),
D184A, D187A […] (forward),
EMSA, SPR, CryoEM (micrographs, […]
Supplementary figs. 3, 4 (ssDNA) 60 Biotin-[…]
Supplementary figs. 3, 4 (dsDNA) 60 Biotin-[…],
Panel A (ssDNA) 32 Cy5-[…]
Panel B (dsDNA) 50 […]-Cy3,
Panel B (ssDNA) 60 Biotin-[…]-
Panel B (dsDNA) 60 Biotin,
Panel C (ssDNA) 32 Biotin-[…]-Biotin […]

In the case of “DDQKNCKKRRALDFLSRLPLPPPVSPICTFVSPAAQKAFQPPRSCGTKY [TR2, BRCA2 TR2 peptide spanning amino acids 3260 to 3308]”, the “TR2 binding by SPR relative to D184A mutant” value (D187A compared with single D184A, n = 3) was “weaker binding compared with the single D184A mutant”, the “TR2 binding by SPR relative to wild-type” value (D187A, Biacore T200, streptavidin chip, biotinylated ss- or dsDNA, CMA buffer pH 7.4, 1 μM RAD51, TR2 0.1-15 μM, 120 s, n = 3 (one dsDNA run discounted, failed injection)) was “clear reduction in TR2 binding” and the “residual TR2 binding” value (D187A, SPR Fig. 1E, authors' response to reviewers) was “retain a degree of binding”. For the same sequence, the “impact of mutation on TR2 binding by SPR, ssDNA versus dsDNA” value (D187A, ssDNA compared with dsDNA, n = 3) was “stronger for NPFs formed on ssDNA”.
